Data as given in ChEMBL document CHEMBL1201862, “PubChem BioAssay data set” (2004).
Structures can show the parent of a compound that is named as a salt. Calls of active or inactive are those of the source.

Key:
[1] = luciferase reporter signal suppression in cells – H4 neuroglioma cells, luminescence, dose response (AID 1990); assay type: functional, cell-based
[2] = Luminescence Cell-Based Dose Response HTS to Identify Inhibitors of 5'UTR Stem-Loop Driven Prion Protein mRNA Translation in H4 Neuroglioblastoma Cells. [Related pubchem assays: 1827 (Project Summary), 1813 (Primary HTS)]; assay type: functional
[3] = alpha-synuclein stem-loop luciferase translation blockers – H4 neuroglioma cells, luminescence, confirmation (AID 1988); assay type: functional, cell-based
[4] = viability of PTEN-deleted HCT116 cells – cell-based, HCT116 PTEN knockout, dose response (AID 1047); assay type: functional;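 further: HCT116 colon tumor cells with PTEN knocked out; cells exposed to compound for 60 hours before readout; potency for loss of cell viability measured by luminescence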
[5] = viability of HCT116 lacking mutant beta-catenin – cell-based, human colon tumor, dose response (AID 1045); assay type: functional;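 further: HCT116 colon tumor cells with beta catenin knocked out; cells exposed to compound for 60 hours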
[6] = molecular target: T1, Ubiquitin-conjugating enzyme E2 N (Homo sapiens, UniProt P61088); assay type: functional;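 further: Dose-response confirmation in a TR-FRET assay detecting UBC13-driven polyubiquitin chain formation, inhibition measured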
T1 sequence (P61088 whole entry): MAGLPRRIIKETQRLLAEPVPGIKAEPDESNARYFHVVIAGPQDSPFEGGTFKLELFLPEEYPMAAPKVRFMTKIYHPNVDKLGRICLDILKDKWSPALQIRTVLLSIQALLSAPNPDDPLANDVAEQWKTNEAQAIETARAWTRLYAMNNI

[7] = reduction of Shn3 3'UTR-driven luciferase in osteoblasts – cell-based, Clone20 osteoblasts, firefly luciferase, cherry-picked, dose response (AID 624132); assay type: functional;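 further: firefly luciferase luminescence from reporter carrying the Shn3 3'UTR in osteoblasts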
[8] = loss of viability in HepG2 cells – cell-based, CellTiter-Glo, cherry-picked, cytotoxicity control for Shn3 inhibitor project, dose response (AID 624134); assay type: functional
[9] = non-specific 3'UTR reporter inhibition in Clone20-Shn3RL – cell-based, Renilla luciferase, cherry-picked, counter-screen for Shn3 inhibitor project, dose response (AID 624133); assay type: functional
[10] = molecular target: T2, Histone-lysine N-methyltransferase NSD2 (Homo sapiens, UniProt O96028); assay type: biochemical
T2 sequence (O96028 whole entry): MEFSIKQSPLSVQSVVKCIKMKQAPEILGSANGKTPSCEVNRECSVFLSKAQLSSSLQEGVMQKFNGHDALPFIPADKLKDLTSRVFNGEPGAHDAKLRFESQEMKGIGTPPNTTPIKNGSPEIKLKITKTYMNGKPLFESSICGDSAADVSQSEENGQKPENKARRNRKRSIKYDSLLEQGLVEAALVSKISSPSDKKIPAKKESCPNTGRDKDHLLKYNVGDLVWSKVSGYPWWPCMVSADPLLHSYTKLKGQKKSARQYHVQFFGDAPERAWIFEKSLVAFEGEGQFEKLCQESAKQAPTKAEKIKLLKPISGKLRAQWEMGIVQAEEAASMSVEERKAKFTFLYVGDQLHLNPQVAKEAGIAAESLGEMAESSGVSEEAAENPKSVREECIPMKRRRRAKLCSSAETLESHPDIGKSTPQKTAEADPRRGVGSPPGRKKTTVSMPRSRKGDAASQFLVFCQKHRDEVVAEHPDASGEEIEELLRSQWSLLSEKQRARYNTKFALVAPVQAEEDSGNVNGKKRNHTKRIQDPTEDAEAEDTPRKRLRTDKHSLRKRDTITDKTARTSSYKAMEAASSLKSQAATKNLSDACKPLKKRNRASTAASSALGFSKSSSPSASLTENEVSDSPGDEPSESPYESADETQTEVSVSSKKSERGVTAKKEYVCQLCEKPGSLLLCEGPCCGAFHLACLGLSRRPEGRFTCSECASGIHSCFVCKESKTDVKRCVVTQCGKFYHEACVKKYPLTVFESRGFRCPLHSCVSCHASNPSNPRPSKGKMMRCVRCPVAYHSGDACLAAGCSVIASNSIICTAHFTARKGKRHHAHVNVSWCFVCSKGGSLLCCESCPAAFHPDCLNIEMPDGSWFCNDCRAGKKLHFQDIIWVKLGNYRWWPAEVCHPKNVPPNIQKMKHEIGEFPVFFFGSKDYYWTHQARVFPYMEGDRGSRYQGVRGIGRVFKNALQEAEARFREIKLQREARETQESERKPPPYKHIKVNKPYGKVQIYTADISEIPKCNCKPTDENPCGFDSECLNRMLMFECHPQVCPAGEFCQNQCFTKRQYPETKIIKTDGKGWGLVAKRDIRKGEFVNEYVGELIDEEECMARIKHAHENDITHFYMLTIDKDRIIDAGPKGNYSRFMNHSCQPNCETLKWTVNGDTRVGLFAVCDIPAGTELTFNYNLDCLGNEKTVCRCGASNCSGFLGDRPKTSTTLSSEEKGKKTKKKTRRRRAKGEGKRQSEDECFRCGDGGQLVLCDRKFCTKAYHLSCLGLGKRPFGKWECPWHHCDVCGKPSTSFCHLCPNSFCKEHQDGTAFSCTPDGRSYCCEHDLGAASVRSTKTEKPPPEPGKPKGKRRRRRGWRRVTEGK

[11] = molecular target: Luciferin 4-monooxygenase (Photinus pyralis, UniProt P08659); assay: Counter Screen for Luciferase-based Assay Positives. [Related pubchem assays: 620, 618, 411 ]
HT-1080 = assay: HT1080 cell viability loss – fluorescence readout (AID 620); assay type: functional, cell-based; conditions: Homo sapiens
Leucine aminopeptidase = molecular target: T3, Leucine aminopeptidase (Plasmodium falciparum 3D7, UniProt Q8IL11); assay: P. falciparum M17LAP inhibitors, primary screen, biochemical, fluorogenic H-Leu-NHMec substrate, 1536-well (AID 1619); assay type: functional
T3 sequence (Q8IL11 whole entry): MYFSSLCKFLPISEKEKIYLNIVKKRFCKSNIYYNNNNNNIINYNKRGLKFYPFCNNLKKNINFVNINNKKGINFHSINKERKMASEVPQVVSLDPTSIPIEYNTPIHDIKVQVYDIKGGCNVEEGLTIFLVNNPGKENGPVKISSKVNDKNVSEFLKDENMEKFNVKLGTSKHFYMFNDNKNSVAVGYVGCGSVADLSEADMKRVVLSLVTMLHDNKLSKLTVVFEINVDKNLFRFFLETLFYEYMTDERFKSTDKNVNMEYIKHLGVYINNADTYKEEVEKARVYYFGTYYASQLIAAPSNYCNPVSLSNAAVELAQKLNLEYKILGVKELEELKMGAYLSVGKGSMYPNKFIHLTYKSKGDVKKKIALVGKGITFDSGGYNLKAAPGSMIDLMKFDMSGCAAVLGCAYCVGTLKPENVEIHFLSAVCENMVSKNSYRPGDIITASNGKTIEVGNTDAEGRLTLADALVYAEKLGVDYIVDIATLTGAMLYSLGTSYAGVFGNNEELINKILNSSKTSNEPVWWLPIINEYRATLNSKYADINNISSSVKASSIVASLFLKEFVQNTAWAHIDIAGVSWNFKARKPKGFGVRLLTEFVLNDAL

[12] = molecular target: Induced myeloid leukemia cell differentiation protein Mcl-1 (Homo sapiens, UniProt Q07820); assay type: functional
[13] = molecular target: T4, Heat shock factor protein 1 (Mus musculus, UniProt P38532); assay: enhancement of HSF1-driven luciferase signal – cell-based, NIH3T3, luminescence, dose retest, confirmation (AID 435004); assay type: functional;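 further: stress induced by proteasome inhibitor MG132 added 30 min after compound; luciferase reporter driven by HSF1 response element in NIH3T3 cells; actives raise luminescence as potentiators of the MG132 stress response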
T4 sequence (P38532 whole entry): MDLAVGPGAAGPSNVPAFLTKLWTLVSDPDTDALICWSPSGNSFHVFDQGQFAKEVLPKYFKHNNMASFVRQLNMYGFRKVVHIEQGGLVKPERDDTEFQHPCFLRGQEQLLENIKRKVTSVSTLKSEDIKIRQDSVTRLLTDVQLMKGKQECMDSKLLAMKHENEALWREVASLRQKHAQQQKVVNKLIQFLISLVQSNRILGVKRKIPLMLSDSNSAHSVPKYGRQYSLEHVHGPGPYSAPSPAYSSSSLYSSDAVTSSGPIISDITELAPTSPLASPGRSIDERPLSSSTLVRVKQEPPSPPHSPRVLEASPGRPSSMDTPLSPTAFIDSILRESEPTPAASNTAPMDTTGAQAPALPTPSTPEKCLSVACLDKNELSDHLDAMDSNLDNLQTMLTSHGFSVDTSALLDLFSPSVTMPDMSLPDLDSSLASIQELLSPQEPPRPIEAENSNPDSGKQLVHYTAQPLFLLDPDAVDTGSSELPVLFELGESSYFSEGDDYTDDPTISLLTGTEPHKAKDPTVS

Genome polyprotein = Genome polyprotein (dengue virus type 2, UniProt P29990); assay: flavivirus cap methylation enzyme inhibition – biochemical, confirmation dose response, primary screen (AID 588689); assay type: functional
[14] = molecular target: T5, Long-chain-fatty-acid--AMP ligase FadD28 (Mycobacterium tuberculosis, UniProt P9WQ59); assay: Fluorescence polarization aasay to screen for inhibitors that compete for the binding of FadD28 to a bisubstrate Measured in Biochemical System Using Plate Reader - 2147-01_Inhibitor_Dose_CherryPick_Activity.; assay type: functional, Mycobacterium tuberculosis H37Rv
T5 sequence (P9WQ59 whole entry): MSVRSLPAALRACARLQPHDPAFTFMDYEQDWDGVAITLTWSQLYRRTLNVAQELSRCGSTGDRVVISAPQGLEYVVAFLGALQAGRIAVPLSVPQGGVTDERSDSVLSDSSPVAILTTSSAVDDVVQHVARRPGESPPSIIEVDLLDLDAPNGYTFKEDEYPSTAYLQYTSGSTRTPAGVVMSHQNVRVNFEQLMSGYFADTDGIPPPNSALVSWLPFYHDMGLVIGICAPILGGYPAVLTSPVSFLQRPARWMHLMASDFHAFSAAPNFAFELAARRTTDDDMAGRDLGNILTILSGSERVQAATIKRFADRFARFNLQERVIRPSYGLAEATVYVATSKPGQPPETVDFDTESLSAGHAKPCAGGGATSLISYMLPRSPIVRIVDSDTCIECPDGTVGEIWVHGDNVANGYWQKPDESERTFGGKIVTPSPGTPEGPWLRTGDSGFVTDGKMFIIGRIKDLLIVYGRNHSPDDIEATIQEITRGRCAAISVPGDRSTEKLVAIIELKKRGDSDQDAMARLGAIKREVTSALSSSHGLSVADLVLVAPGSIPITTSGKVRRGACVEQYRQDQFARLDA

[15] = viability loss in THP-1 monocytes – THP-1 cells, cytotoxicity control for Vif-APOBEC3G degradation inhibitor project, dose response (AID 1117359); assay type: functional; conditions: THP-1
[16] = Trypanosoma cruzi growth suppression in host cells – NIH3T3 host cells, beta-gal luminescence, confirmation (AID 2044); assay type: functional, cell-based;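 further: intracellular parasites grown in NIH/3T3 mouse fibroblasts as host cells; luminescent beta-galactosidase reporter signal from transgenic T. cruzi replicating inside host cells; inhibitors lower the luminescence signal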
[17] = NIH3T3 cell viability loss – ATP luminescence, mouse fibroblasts, counter-screen, dose response (AID 2010); assay type: functional, cell-based;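 further: cells exposed to compound for about 90 hours before reading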
[18] = molecular target: FAD-linked sulfhydryl oxidase ALR (Homo sapiens, UniProt P55789); assay: ALR-catalysed DTT oxidation blockers – biochemical, H2O2 detection, luminescence, cherry-pick, dose response (AID 493248)
[19] = molecular target: T6, Trace amine-associated receptor 1 (Homo sapiens, UniProt Q96RJ0); assay: Fluorescence-based cell-based high throughput dose response assay to identify agonists of the human trace amine associated receptor 1 (TAAR1).; assay type: functional
T6 sequence (Q96RJ0 whole entry): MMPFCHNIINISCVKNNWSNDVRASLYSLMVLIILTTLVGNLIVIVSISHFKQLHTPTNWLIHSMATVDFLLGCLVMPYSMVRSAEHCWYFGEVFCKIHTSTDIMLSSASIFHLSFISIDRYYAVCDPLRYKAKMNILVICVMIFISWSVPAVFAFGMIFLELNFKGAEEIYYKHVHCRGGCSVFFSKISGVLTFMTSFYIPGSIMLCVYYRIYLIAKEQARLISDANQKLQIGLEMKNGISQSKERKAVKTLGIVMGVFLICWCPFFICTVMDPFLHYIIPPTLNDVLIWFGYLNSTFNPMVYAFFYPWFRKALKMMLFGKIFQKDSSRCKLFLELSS

[20] = molecular target: T6, Trace amine-associated receptor 1; assay: Counterscreen for agonists of the human trace amine associated receptor 1 (hTAAR1): Fluorescence-based cell-based high throughput dose response assay to identify hTAAR1 agonist that also desensitize TAAR1 receptor response.; assay type: functional

Chain of Luciferin 4-monooxygenase (P08659 whole entry): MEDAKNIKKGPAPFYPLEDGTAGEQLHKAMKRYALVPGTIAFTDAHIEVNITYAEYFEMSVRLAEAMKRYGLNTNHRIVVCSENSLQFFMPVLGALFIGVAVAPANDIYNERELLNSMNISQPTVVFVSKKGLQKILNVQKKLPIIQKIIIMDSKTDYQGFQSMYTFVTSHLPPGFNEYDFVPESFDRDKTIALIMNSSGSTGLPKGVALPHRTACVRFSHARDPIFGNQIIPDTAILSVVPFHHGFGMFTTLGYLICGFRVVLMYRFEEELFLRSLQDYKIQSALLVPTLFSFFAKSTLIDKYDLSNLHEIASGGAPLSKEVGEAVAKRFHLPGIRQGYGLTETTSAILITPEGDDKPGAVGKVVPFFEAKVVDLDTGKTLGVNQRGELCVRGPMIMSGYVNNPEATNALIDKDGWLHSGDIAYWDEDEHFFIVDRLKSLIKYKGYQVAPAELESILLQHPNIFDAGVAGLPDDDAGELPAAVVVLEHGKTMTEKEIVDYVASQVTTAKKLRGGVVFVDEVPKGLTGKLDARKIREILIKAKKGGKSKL
Chain of Genome polyprotein (P29990 2492-3391 limits assumed): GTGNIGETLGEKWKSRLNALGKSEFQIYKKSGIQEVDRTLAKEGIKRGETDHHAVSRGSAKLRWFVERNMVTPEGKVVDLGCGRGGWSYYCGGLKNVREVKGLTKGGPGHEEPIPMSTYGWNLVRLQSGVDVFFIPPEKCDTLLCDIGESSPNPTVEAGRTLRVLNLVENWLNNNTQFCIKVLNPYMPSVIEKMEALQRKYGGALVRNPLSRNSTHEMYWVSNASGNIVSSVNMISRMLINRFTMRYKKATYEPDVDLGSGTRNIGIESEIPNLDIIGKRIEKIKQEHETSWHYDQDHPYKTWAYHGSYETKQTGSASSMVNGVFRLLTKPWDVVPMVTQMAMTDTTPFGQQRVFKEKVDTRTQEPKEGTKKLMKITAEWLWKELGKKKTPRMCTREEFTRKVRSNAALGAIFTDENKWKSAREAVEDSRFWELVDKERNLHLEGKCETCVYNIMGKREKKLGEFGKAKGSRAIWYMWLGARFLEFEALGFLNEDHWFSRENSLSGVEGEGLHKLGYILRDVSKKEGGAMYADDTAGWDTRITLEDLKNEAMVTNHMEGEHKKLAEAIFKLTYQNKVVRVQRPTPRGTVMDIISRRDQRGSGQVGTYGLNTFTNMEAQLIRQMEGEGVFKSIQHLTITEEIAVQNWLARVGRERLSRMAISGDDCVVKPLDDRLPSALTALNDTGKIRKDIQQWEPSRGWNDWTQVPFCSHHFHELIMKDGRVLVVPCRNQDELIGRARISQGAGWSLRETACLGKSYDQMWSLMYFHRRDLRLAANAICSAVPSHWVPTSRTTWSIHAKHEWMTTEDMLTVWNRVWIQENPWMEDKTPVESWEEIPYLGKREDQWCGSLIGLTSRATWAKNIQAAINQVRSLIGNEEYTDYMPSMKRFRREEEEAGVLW
Chain of Induced myeloid leukemia cell differentiation protein Mcl-1 (Q07820 whole entry): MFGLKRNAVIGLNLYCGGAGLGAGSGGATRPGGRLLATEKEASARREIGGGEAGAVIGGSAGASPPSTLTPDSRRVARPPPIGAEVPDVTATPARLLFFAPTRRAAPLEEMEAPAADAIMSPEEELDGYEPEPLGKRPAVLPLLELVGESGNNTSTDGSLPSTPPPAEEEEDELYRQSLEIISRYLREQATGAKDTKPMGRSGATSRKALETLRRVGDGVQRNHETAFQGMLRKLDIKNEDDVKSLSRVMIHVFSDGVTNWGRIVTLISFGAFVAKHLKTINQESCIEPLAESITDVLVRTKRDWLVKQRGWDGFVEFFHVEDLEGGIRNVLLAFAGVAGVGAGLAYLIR
Chain of FAD-linked sulfhydryl oxidase ALR (P55789 whole entry): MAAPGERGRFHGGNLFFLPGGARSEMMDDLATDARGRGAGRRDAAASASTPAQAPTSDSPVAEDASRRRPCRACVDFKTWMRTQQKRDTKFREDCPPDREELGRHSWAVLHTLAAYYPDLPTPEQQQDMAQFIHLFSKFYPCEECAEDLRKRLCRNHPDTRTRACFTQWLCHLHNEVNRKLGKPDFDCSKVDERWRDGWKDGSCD

With CCCCCCCSc1cc(OC)c(CCNC)cc1OC the EC50 [1] was > 120 µM (not active), the EC50 [2] was > 120 µM (not active) and the EC50 [3] was 11.9 µM (active). The EC50 [4] was 9.72 µM (active), the EC50 [5] was 8.71 µM (active) and the IC50 [6] was > 20 µM (inactive). The AC50 [7] was 10.6 µM (active), the AC50 [8] was 8.47 µM (active) and the AC50 [9] was 10.5 µM (active). For the same molecule, the AC50 [10] was 17.5 µM (active).

With O=C(CCCOc1ccccc1)N1CCCCC1 the EC50 [11] was < 0.2 µM (active), the EC50 [2] was 8.9 µM (active) and the EC50 [3] was 8.68 µM (active). For the same molecule, the EC50 (HT-1080) was > 50 µM (not active).

For Cc1cccc(NC(=O)CSc2nnc(-c3ccco3)c(-c3ccco3)n2)c1C, the IC50 (Leucine aminopeptidase) was 20.6 µM (active), the IC50 [12] was 5.98 µM (active) and the EC50 [13] was > 260 µM (inactive). The IC50 (Genome polyprotein) was 96.3 µM (active), the AC50 [14] was > 100 µM (inactive) and the CC50 [15] was > 40 µM (active).

For CCN(CCNC(=O)C1CCCN(Cc2nc(-c3ccc(OC)cc3)oc2C)C1)c1ccccc1 (centres undefined), the EC50 [16] was < 0.1 µM (active), the EC50 [17] was 7.96 µM (active) and the AC50 [18] was 0.01 µM (active). For the same molecule, the EC50 (cells) was 0.383 µM (active).

With CC(=O)n1cc([C@H]2C=C(C(=O)N3CCN(Cc4ccc5c(c4)OCO5)CC3)O[C@@H](OCc3ccc(CO)cc3)C2)c2ccccc21 the EC50 [16] was < 0.1 µM (active), the EC50 [17] was > 30 µM (not active) and the EC50 (cells) was 0.197 µM (active).

For c1ccc(CN(CC2=NCCN2)c2ccccc2)cc1 [ANTAZOLINE HYDROCHLORIDE], the EC50 [19] was 4.31 µM (active) and the IC50 [20] was > 29.9 µM (inactive).
